Patent publication US20060194766A1, “Combinations comprising anti-epileptic drugs for the treatment of neurological disorders” (priority 2003, published 2006)

System: MES-induced seizures
Experiment: Maximal electroshock test (MES)-induced seizures in mice
Format: in vivo
Conditions: for % animals protected from seizures: pre-treatment 1 h
Experimental: Generalized tonic-clonic seizures are induced in mice by a maximal electroshock test (MES). In brief, seizures of the hind extremities of male Tif: MAGf (SPF) mice (19-25 g) are induced by passing alternating electrical current (50 Hz, 18 mA, 0.2 s) through temporal electrodes. The compounds and carbamazepine are suspended in 0.5% methyl cellulose for p.o. administration (doses for the compounds: 3.125, 6.25, 12.5 and 20.0 mg/kg p.o). The pre-treatment period for all compounds is 1 h. Ten animals per dose are used. For each experiment one group serves as a negative control (placebo). The number of animals protected from tonic hind limb extension seizure is determined in each dose and combination group.

Question: `NC(=O)N1c2ccccc2C=Cc2ccccc21` [Carbamazepine] was tested. Which “% animals protected from seizures” value (Carbamazepine 7.5 mg/kg combined with Compound 1, 3.125 mg/kg p.o.) did it give?
Answer: 40%

Question: And the “% animals protected from seizures” value (Carbamazepine 7.5 mg/kg p.o. combined with placebo)?
Answer: 0%

Question: And the “% animals protected from seizures” value (Carbamazepine 12.5 mg/kg combined with Compound 1, 3.125 mg/kg p.o.)?
Answer: 80%

Question: What about the “% animals protected from seizures” value (Carbamazepine 12.5 mg/kg combined with Compound 1, 6.25 mg/kg p.o.) of the same compound?
Answer: 90%

Question: What about the “% animals protected from seizures” value (Carbamazepine 20.0 mg/kg combined with Compound 1, 6.25 mg/kg p.o.) of the same compound?
Answer: 100%

Question: What about the “% animals protected from seizures” value (Carbamazepine 20.0 mg/kg p.o. combined with placebo) of the same compound?
Answer: 80%

Question: What about the “% of the mice protected” value (carbamazepine combined with placebo, doses of 7.5 to 20.0 mg/kg p.o.) of the same compound?
Answer: up to 80%
